Measured values as given in PMC10671052, “Naphthyl-Substituted Indole and Pyrrole Carboxylic Acids as Effective Antibiotic Potentiators—Inhibitors of Bacterial Cystathionine γ-Lyase” (International Journal of Molecular Sciences, 2023).

Assays:
[1] = system: A. baumannii GIMC5509:ABT-52Ts19; assay: MIC of antibiotics alone and with potentiators, clinical isolate
Experimental: (§3) Overnight (ON) culture of a specific strain was grown in the liquid Luria–Bertani nutrient medium (LB broth, BD Difco) for 18 h at 37 °C, with agitation at 180 rpm using an Innova 44R orbital shaker (Eppendorf, Hamburg, Germany). After a certain period, 50 µL of the ON culture was transferred into 5 mL of the LB medium and grown for 3 h at 37 °C with agitation. Growth in the liquid medium was assessed by means of turbidity of the suspension, measured using a Densi-La-Meter II densitometer (Erba Lachema s.r.o., Brno, Czech Republic). Then, the bacterial suspension was diluted to the concentration 10^6 cells/mL with sterile LB and used as a seed culture [38, 39].
(§4) For the assessment of MICs, 96-well microtiter plates were utilized at 200 µL of a medium per well. Each well was filled with 100 µL of the seed culture. After that, 10 µL of a solution of each tested synthetic compound (potentiators) was added into each experimental well. Finally, 90 µL of twofold serial dilutions of an antibiotic in a sterile LB was added into individual wells.
(§5) As a positive control, we set up wells with 100 µL of the bacterial culture and 100 µL of the sterile LB medium. […] Negative-control wells contained 200 µL of the sterile medium. The plates were incubated in a thermostat for 18–20 h at 37 °C. The bacterial growth was assessed as optical density at 600 nm on a CLARIOstar microplate reader (BMG LABTECH GmbH, Ortenberg, Germany)).

[2] = target: T1, human cystathionine-γ-lyase (hCSE) (Homo sapiens, UniProt P32929); assay: IC50 assay: inhibition of H2S production by purified hCSE, WSP5 fluorescent probe; assay type: biochemical; settings: purified hCSE 0.02 μM, 100 μM L-cysteine, WSP5 probe, mean ± SD; read-out: IC50 biochemical assay hCSE
T1 construct: His6-TEV (N, cleaved yes); host or cells: E. coli
Experimental: (§1) Fluorescence spectrophotometry-based inhibitory activity toward purified bCSE and hCSE was measured in a 96-well nonbinding black plate (Greiner, Kremsmunster, Austria) at 100 μL of the reaction mixture per well. bCSE and hCSE (0.02 μM) were preincubated in a thermoshaker (Biosan, Riga, Latvia) (30 °C, 300 rpm) for 40 min in 50 mM sodium phosphate buffer (pH 8.0), supplemented with 10 μM pyridoxal 5′-phosphate (Sigma-Aldrich, St. Louis, MO, USA), 0.1% of Tween 20 (Sigma-Aldrich, St. Louis, MO, USA), and 1.2 μM Washington State Probe-5 (Cayman Chemical, Ann Arbor, MI, USA) (excitation: 500 nm, emission: 530 nm) at different concentrations of a tested inhibitor. The reaction was initiated by the addition of 100 μM L-cysteine (TCI, Chennai, Tamil Nadu, India) in 50 mM sodium phosphate buffer pH 8.0 to the reaction mixture, and the enzymatic activity was monitored for 12 h using a CLARIOstar Plus instrument (BMG LABTECH GmbH, Ortenberg, Germany). The 100 µM L-cysteine concentration used in the experiments corresponds to the maximal reported intracellular concentration in bacteria. The data were normalized to the positive and negative controls, and IC50 values were obtained by fitting to a four-parameter sigmoidal curve (inhibitor vs. response, variable slope model) in GraphPad Prism 8 software (GraphPad by Dotmatics, Boston, MA, USA). Each experiment was conducted with 2–3 technical replicates. IC50 values were means of at least two independent experiments.
(§2) For the production of S. aureus cystathionine-γ-lyase (bCSE) and of human cystathionine-γ-lyase (hCSE), plasmids pSUMO:saCSE (Addgene # 54336) and pNIC28-Bsa4 (Addgene # 42365) were employed. Cultivation of a competent E. coli cell strain (Thermo Fisher Scientific, Waltham, MA, USA), transformed with a target plasmid, was carried out on a selective solid medium with kanamycin. Bacterial cells harboring the plasmid vector were cultured at 37 °C and 180 rpm until OD600 = 0.65. Then, isopropyl β-D1-thiogalactopyranoside (IPTG) was added to a final concentration of 1 mM. To obtain bCSE, the cells were cultured for 3.5 h at 37 °C; to obtain hCSE, the cells were cultured for 18–20 h at 25 °C. After centrifugation, cells were resuspended in a buffer composed of 50 mM Tris–HCl, at a pH of 8.0, and 300 mM sodium chloride. After that, the cells were lysed by ultrasonication, with a pulse duration of 15 s and an interval between pulses of 15 s. The amplitude of the ultrasonic vibrations was 50% of the maximum. After lysis, samples were centrifuged for 15 min (20,000× g at 4 ℃). The pH of the supernatant obtained after the centrifugation was adjusted to 7.5 by the addition of a 1 M solution of Tris–OH. Then, the test sample was subjected to filtration through a polyethersulfone membrane with a pore diameter of 0.22 μm.

[3] = target: S. aureus cystathionine-γ-lyase (bCSE) (Staphylococcus aureus, UniProt A0A0H3K724); assay: IC50 assay: inhibition of H2S production by purified bCSE, WSP5 fluorescent probe; assay type: biochemical
Experimental: as §1, §2

[4] = system: P. aeruginosa GIMC5016:PA1840/36/2015; assay: MIC of antibiotics alone and with potentiators, clinical isolate
Experimental: as §3, §4, §5

bCSE = target: bCSE; set-up: method as in PMID 34112687; settings: NL2 is from ref 13; read-out: experimental inhibition constant; cited from earlier work
[5] = A. baumannii GIMC5509:ABT-52Ts19, potentiator 50 µg/mL
[6] = P. aeruginosa GIMC5016:PA1840/36/2015, potentiator 50 µg/mL

S. aureus cystathionine-γ-lyase (bCSE), sequence (A0A0H3K724 entry or part of it): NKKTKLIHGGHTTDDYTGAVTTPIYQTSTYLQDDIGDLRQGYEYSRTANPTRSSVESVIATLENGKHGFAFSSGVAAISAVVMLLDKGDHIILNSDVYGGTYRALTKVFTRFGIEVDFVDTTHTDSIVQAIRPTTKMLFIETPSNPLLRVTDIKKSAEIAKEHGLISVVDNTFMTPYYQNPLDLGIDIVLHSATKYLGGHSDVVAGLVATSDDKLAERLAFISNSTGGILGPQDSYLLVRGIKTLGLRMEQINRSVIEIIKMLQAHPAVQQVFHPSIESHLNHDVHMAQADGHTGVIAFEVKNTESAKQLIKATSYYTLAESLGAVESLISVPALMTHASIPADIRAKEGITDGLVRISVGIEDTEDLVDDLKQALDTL
T1 sequence (P32929 whole entry): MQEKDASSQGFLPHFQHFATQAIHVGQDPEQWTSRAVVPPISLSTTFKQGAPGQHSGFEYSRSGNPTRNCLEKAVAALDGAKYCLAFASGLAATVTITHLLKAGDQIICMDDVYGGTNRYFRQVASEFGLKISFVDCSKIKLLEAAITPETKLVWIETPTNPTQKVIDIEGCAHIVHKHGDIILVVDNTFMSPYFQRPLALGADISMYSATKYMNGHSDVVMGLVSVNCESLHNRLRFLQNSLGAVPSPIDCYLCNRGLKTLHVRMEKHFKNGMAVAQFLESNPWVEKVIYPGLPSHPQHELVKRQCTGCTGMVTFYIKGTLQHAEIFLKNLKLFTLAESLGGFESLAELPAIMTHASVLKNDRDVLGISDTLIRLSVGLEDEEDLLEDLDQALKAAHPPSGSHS

## Cc1oc(Cn2ccc3ccc(Br)cc32)cc1C(=O)O [NL2, 5-((6-bromo-1H-indol-1-yl)methyl)-2-methylfuran-3-carboxylic acid]
[1]; A. baumannii GIMC5509:ABT-52Ts19, piperacillin + tazobactam, potentiator 50 µg/mL
  MIC of Tacillin in combination with potentiator: 128 µg/mL
[1]; [5]
  MIC of Cefepim in combination with potentiator: 128 µg/mL
  MIC of Meropenem in combination with potentiator: 32 µg/mL
[2]
  IC50: > 500 µM
[3]; IC50 (uM), bCSE enzymatic IC50, rounded, repeated in Table S13
  IC50: 144 µM
[3]; IC50 (uM), bCSE enzymatic IC50, rounded, repeated in Table S14
  IC50: 144 µM
[3]; IC50 biochemical assay bCSE, purified bCSE 0.02 μM, 100 μM L-cysteine, WSP5 probe, mean ± SD
  IC50: 144 ± 9 µM
[4]; P. aeruginosa GIMC5016:PA1840/36/2015, piperacillin + tazobactam, potentiator 50 µg/mL
  MIC of Tacillin in combination with potentiator: 32 µg/mL
[4]; [6]
  MIC of Cefepim in combination with potentiator: 64 µg/mL
  MIC of Gentamicin in combination with potentiator: > 512 µg/mL
  MIC of Meropenem in combination with potentiator: 8 µg/mL
bCSE
  Ki: 1.8 µM
